For six compounds, Activity and T/C results are on record in ChEMBL document CHEMBL3272269, “Synthesis and antileukemic activities of furanyl, pyranyl, and ribosyl derivatives of 4-(3,3-dimethyl-1-triazeno)imidazole-5-carboxamide and 3-(3,3-dimethyl-1-triazeno)pyrazole-4-carboxamide” (J Med Chem, 1979).

Calls of active or inactive are those of the source. No cut-off for these calls is given here.

Data set [1] deals with Mus musculus. The data set is described as follows: Toxicity in mouse L1210 cells allografted mouse assessed as reduction in body weight at 200 mg/kg administered on day 1 followed by 5 injections with 1 day interval. To be noted: in vivo, 24 h. It is filed as organism-based. On the set-up: dose 200 mg/kg.
Data set [2] concerns Mus musculus. The data set is described as follows: Toxicity in mouse L1210 cells allografted mouse assessed as reduction in body weight at 100 mg/kg administered on day 1 followed by 5 injections with 1 day interval. The data set is classed as organism-based. On the set-up: dose 100 mg/kg. To be noted: in vivo, 24 h.
The test system of data set [3] is Mus musculus. Nature of the data set: Toxicity in mouse L1210 cells allografted mouse assessed as reduction in body weight at 400 mg/kg administered on day 1 followed by 5 injections with 1 day interval. It is filed as organism-based. To be noted: in vivo, 24 h. On the set-up: dose 400 mg/kg.
Data set [4] concerns L1210. The data set is described as follows: Antitumor activity against mouse L1210 cells allografted in mouse assessed as survival at 200 mg/kg administered on day 1 followed by 5 injections with 1 day interval. It is filed as functional, organism-based. On the set-up: dose 200 mg/kg.
Data set [5] concerns L1210. Nature of the data set: Antitumor activity against mouse L1210 cells allografted in mouse assessed as survival at 100 mg/kg administered on day 1 followed by 5 injections with 1 day interval. The data set is classed as functional, organism-based. On the set-up: dose 100 mg/kg.
Data set [6] deals with L1210. The data set is described as follows: Antitumor activity against mouse L1210 cells allografted in mouse assessed as survival at 400 mg/kg administered on day 1 followed by 5 injections with 1 day interval. The data set is classed as functional, organism-based. On the set-up: dose 400 mg/kg.
Data set [7] has as its system L1210. The data set is described as follows: Antitumor activity against mouse L1210 cells allografted in mouse assessed as increase in survival at 200 mg/kg administered on day 1 followed by 5 injections with 1 day interval relative to control. It is filed as functional.
Data set [8] concerns L1210. Nature of the data set: Antitumor activity against mouse L1210 cells allografted in mouse assessed as increase in survival at 100 mg/kg administered on day 1 followed by 5 injections with 1 day interval relative to control. It is filed as functional.
The test system of data set [9] is L1210. The data set is described as follows: Antitumor activity against mouse L1210 cells allografted in mouse assessed as increase in survival at 400 mg/kg administered on day 1 followed by 5 injections with 1 day interval relative to control. It is filed as functional.
Data set [10] relates to Mus musculus. Nature of the data set: Toxicity in mouse L1210 cells allografted BDF1 mouse assessed as reduction in body weight at 180 mg/kg administered on day 1 followed by 9 injections with 1 day interval. The note with it: in vivo, 24 h. It is filed as organism-based. On the set-up: dose 180 mg/kg.
Data set [11] deals with Mus musculus. The data set is described as follows: Toxicity in mouse L1210 cells allografted BDF1 mouse assessed as reduction in body weight at 109 mg/kg administered on day 1 followed by 9 injections with 1 day interval. The data set is classed as organism-based. On the set-up: dose 109 mg/kg. To be noted: in vivo, 24 h.
The test system of data set [12] is Mus musculus. The data set is described as follows: Toxicity in mouse L1210 cells allografted BDF1 mouse assessed as reduction in body weight at 65 mg/kg administered on day 1 followed by 9 injections with 1 day interval. It is filed as organism-based. On the set-up: dose 65 mg/kg. The note with it: in vivo, 24 h.
The subject of data set [13] is Mus musculus. The data set is described as follows: Toxicity in mouse L1210 cells allografted BDF1 mouse assessed as reduction in body weight at 400 mg/kg administered on day 1 followed by 3 injections with 4 day interval. It is filed as organism-based. On the set-up: dose 400 mg/kg. The note with it: in vivo, 96 h.
The test system of data set [14] is Mus musculus. Nature of the data set: Toxicity in mouse L1210 cells allografted BDF1 mouse assessed as reduction in body weight at 200 mg/kg administered on day 1 followed by 3 injections with 4 day interval. The data set is classed as organism-based. On the set-up: dose 200 mg/kg. The note with it: in vivo, 96 h.
Data set [15] concerns Mus musculus. Nature of the data set: Toxicity in mouse L1210 cells allografted BDF1 mouse assessed as reduction in body weight at 100 mg/kg administered on day 1 followed by 3 injections with 4 day interval. The data set is classed as organism-based. On the set-up: dose 100 mg/kg. To be noted: in vivo, 96 h.
Data set [16] has as its system Mus musculus. The data set is described as follows: Toxicity in mouse L1210 cells allografted BDF1 mouse assessed as reduction in body weight at 200 mg/kg administered on day 1 followed by 9 injections with 1 day interval. The data set is classed as organism-based. On the set-up: dose 200 mg/kg. The note with it: in vivo, 24 h.
Data set [17] has as its system L1210. The data set is described as follows: Antitumor activity against mouse L1210 cells allografted in mouse assessed as survival at 400 mg/kg administered on day 1 followed by 3 injections with 4 day interval. On the set-up: dose 400 mg/kg. It is filed as functional, organism-based.
Data set [18] has as its system L1210. The data set is described as follows: Antitumor activity against mouse L1210 cells allografted in mouse assessed as survival at 200 mg/kg administered on day 1 followed by 3 injections with 4 day interval. It is filed as functional, organism-based. On the set-up: dose 200 mg/kg.
The test system of data set [19] is L1210. Nature of the data set: Antitumor activity against mouse L1210 cells allografted in mouse assessed as survival at 100 mg/kg administered on day 1 followed by 3 injections with 4 day interval. It is filed as functional, organism-based. On the set-up: dose 100 mg/kg.
The subject of data set [20] is L1210. The data set is described as follows: Antitumor activity against mouse L1210 cells allografted in mouse assessed as survival at 200 mg/kg administered on day 1 followed by 9 injections with 1 day interval. The data set is classed as functional, organism-based. On the set-up: dose 200 mg/kg.
The test system of data set [21] is L1210. The data set is described as follows: Antitumor activity against mouse L1210 cells allografted in mouse assessed as increase in survival at 400 mg/kg administered on day 1 followed by 3 injections with 4 day interval relative to control. It is filed as functional.
The test system of data set [22] is L1210. Nature of the data set: Antitumor activity against mouse L1210 cells allografted in mouse assessed as increase in survival at 200 mg/kg administered on day 1 followed by 3 injections with 4 day interval relative to control. The data set is classed as functional.
In data set [23] the test system is L1210. Nature of the data set: Antitumor activity against mouse L1210 cells allografted in mouse assessed as increase in survival at 100 mg/kg administered on day 1 followed by 3 injections with 4 day interval relative to control. It is filed as functional.
Data set [24] has as its system L1210. The data set is described as follows: Antitumor activity against mouse L1210 cells allografted in mouse assessed as increase in survival at 200 mg/kg administered on day 1 followed by 9 injections with 1 day interval relative to control. It is filed as functional.

On to `CC(=O)OC[C@H]1O[C@@H](n2cnc(/N=N/N(C)C)c2C(N)=O)[C@H](OC(C)=O)[C@@H]1OC(C)=O`, for which the values for the Activity in data set [1], in data set [2] and in data set [3] were 1.6 g, 1.5 g and 2.2 g, respectively. Further, the result in [4], in [5] and in [6] was Active. In addition, the T/C in [7] is listed as 124%; in data set [8], 123%; in data set [9] it was 157%.

As to `CC(=O)OC[C@H]1O[C@@H](n2ncc(C(N)=O)c2/N=N/N(C)C)[C@H](OC(C)=O)[C@@H]1OC(C)=O`, the Activity in [1] turned out to be 2.3 g. The result in data set [4] was Active. The T/C in data set [7] was determined as 122%.

Turning to `CN(C)/N=N/c1[nH]ncc1C(N)=O`, the Activity came to 4.9 g in data set [10], 3.7 g in data set [11] and 3.2 g in data set [12].

`CN(C)/N=N/c1ncn(C2CCCO2)c1C(N)=O` (centres undefined): the Activity in data set [1] is recorded as 4.3 g; in data set [2], 1.9 g. Further, the result in data set [4] and in data set [5] was Active. Besides, the results for the T/C in [7] and in data set [8] were 115% and 125%, respectively.

Turning to `CC(=O)OC[C@H]1O[C@@H](n2cc(C(N)=O)c(/N=N/N(C)C)n2)[C@H](OC(C)=O)[C@@H]1OC(C)=O`, the Activity is on record as 1.1 g in [13], 1.8 g in data set [14], 0.1 g in data set [15] and 2.8 g in data set [16]. Besides, the result in data set [17], in [18], in [19] and in [20] was Active. Further, the T/C was 89% in data set [21], 105% in data set [22], 100% in [23] and 107% in data set [24].

For the compound `CC(=O)OC[C@H]1O[C@@H](n2cnc(C(N)=O)c2/N=N/N(C)C)[C@H](OC(C)=O)[C@@H]1OC(C)=O`, the Activity is given as 0.9 g in data set [1] and 0.3 g in data set [2]. The outcome in [4] and in [5] was Active. For the same compound, the results for the T/C in data set [7] and in data set [8] were 95% and 104%, respectively.

A word on the T/C: it is the ratio of treated to control.
